Columns and labels:
Test in all cases: KINOMEscan
Assay type in all cases: binding
BMX = molecular target: T1, BMX (Homo sapiens, UniProt P51813); details: read-out: %Ctrl @ 1000 nM
T1 construct: purchased DiscoveRx KINOMEscan

MAP4K2 = molecular target: T2, MAP4K2 (Homo sapiens, UniProt Q12851); details: read-out: %Ctrl @ 1000 nM
T2 construct: purchased DiscoveRx KINOMEscan

CAMK2G = molecular target: T3, CAMK2G (Homo sapiens, UniProt Q13555); details: read-out: %Ctrl @ 1000 nM
T3 construct: purchased DiscoveRx KINOMEscan

EPHA6 = molecular target: T4, EPHA6 (Homo sapiens, UniProt Q9UF33); details: read-out: %Ctrl @ 1000 nM
T4 construct: purchased DiscoveRx KINOMEscan

TNIK = molecular target: T5, TNIK (Homo sapiens, UniProt Q9UKE5); details: read-out: %Ctrl @ 1000 nM
T5 construct: purchased DiscoveRx KINOMEscan

DDR1 = molecular target: T6, DDR1 (Homo sapiens, UniProt Q08345); details: read-out: %Ctrl @ 1000 nM
T6 construct: purchased DiscoveRx KINOMEscan

NEK6 = molecular target: T7, NEK6 (Homo sapiens, UniProt Q9HC98); details: read-out: %Ctrl @ 1000 nM
T7 construct: purchased DiscoveRx KINOMEscan

DAPK2 = molecular target: T8, DAPK2 (Homo sapiens, UniProt Q9UIK4); details: read-out: %Ctrl @ 1000 nM
T8 construct: purchased DiscoveRx KINOMEscan

PKAC-alpha = molecular target: T9, PKAC-alpha (Homo sapiens, UniProt P17612); details: read-out: %Ctrl @ 1000 nM
T9 construct: purchased DiscoveRx KINOMEscan

ERK2 = molecular target: T10, ERK2 (Homo sapiens, UniProt P28482); details: read-out: %Ctrl @ 1000 nM
T10 construct: purchased DiscoveRx KINOMEscan

CSNK1E = molecular target: T11, CSNK1E (Homo sapiens, UniProt P49674); details: read-out: %Ctrl @ 1000 nM
T11 construct: purchased DiscoveRx KINOMEscan

CDKL1 = molecular target: T12, CDKL1 (Homo sapiens, UniProt Q00532); details: read-out: %Ctrl @ 1000 nM
T12 construct: purchased DiscoveRx KINOMEscan

HCK = molecular target: T13, HCK (Homo sapiens, UniProt P08631); details: read-out: %Ctrl @ 1000 nM
T13 construct: purchased DiscoveRx KINOMEscan

SRC = molecular target: T14, SRC (Homo sapiens, UniProt P12931); details: read-out: %Ctrl @ 1000 nM
T14 construct: purchased DiscoveRx KINOMEscan

TLK1 = molecular target: T15, TLK1 (Homo sapiens, UniProt Q9UKI8); details: read-out: %Ctrl @ 1000 nM
T15 construct: purchased DiscoveRx KINOMEscan

MYO3B = molecular target: T16, MYO3B (Homo sapiens, UniProt Q8WXR4); details: read-out: %Ctrl @ 1000 nM
T16 construct: purchased DiscoveRx KINOMEscan

ACVR2B = molecular target: T17, ACVR2B (Homo sapiens, UniProt Q13705); details: read-out: %Ctrl @ 1000 nM
T17 construct: purchased DiscoveRx

NEK5 = molecular target: T18, NEK5 (Homo sapiens, UniProt Q6P3R8); details: read-out: %Ctrl @ 1000 nM
T18 construct: purchased DiscoveRx KINOMEscan

MKNK1 = molecular target: T19, MKNK1 (Homo sapiens, UniProt Q9BUB5); details: read-out: %Ctrl @ 1000 nM
T19 construct: purchased DiscoveRx KINOMEscan

PIM1 = molecular target: T20, PIM1 (Homo sapiens, UniProt P11309); details: read-out: %Ctrl @ 1000 nM
T20 construct: purchased DiscoveRx KINOMEscan

FLT3(D835Y) = molecular target: T21, FLT3(D835Y) (Homo sapiens, UniProt P36888, D835Y); details: read-out: %Ctrl @ 1000 nM
T21 construct: purchased DiscoveRx KINOMEscan

PIK3CA(H1047L) = molecular target: T22, PIK3CA(H1047L) (Homo sapiens, UniProt P42336, H1047L); details: read-out: %Ctrl @ 1000 nM
T22 construct: purchased DiscoveRx KINOMEscan

CTK = molecular target: T23, CTK (Homo sapiens, UniProt P42679); details: read-out: %Ctrl @ 1000 nM
T23 construct: purchased DiscoveRx KINOMEscan

DDR2 = molecular target: T24, DDR2 (Homo sapiens, UniProt Q16832); details: read-out: %Ctrl @ 1000 nM
T24 construct: purchased DiscoveRx KINOMEscan

PKN1 = molecular target: T25, PKN1 (Homo sapiens, UniProt Q16512); details: read-out: %Ctrl @ 1000 nM
T25 construct: purchased DiscoveRx KINOMEscan

PRKCI = molecular target: T26, PRKCI (Homo sapiens, UniProt P41743); details: read-out: %Ctrl @ 1000 nM
T26 construct: purchased DiscoveRx KINOMEscan

ASK1 = molecular target: T27, ASK1 (Homo sapiens, UniProt Q99683); details: read-out: %Ctrl @ 1000 nM
T27 construct: purchased DiscoveRx KINOMEscan

STK33 = molecular target: T28, STK33 (Homo sapiens, UniProt Q9BYT3); details: read-out: %Ctrl @ 1000 nM
T28 construct: purchased DiscoveRx KINOMEscan

CDKL5 = molecular target: T29, CDKL5 (Homo sapiens, UniProt O76039); details: read-out: %Ctrl @ 1000 nM
T29 construct: purchased DiscoveRx KINOMEscan

TBK1 = molecular target: T30, TBK1 (Homo sapiens, UniProt Q9UHD2); details: read-out: %Ctrl @ 1000 nM
T30 construct: purchased DiscoveRx KINOMEscan

WNK3 = molecular target: T31, WNK3 (Homo sapiens, UniProt Q9BYP7); details: read-out: %Ctrl @ 1000 nM
T31 construct: purchased DiscoveRx KINOMEscan

FLT3(D835H) = molecular target: T32, FLT3(D835H) (Homo sapiens, UniProt P36888, D835H); details: read-out: %Ctrl @ 1000 nM
T32 construct: purchased DiscoveRx KINOMEscan

PAK7 = molecular target: T33, PAK7 (Homo sapiens, UniProt Q9P286); details: read-out: %Ctrl @ 1000 nM
T33 construct: purchased DiscoveRx KINOMEscan

TSSK1B = molecular target: T34, TSSK1B (Homo sapiens, UniProt Q9BXA7); details: read-out: %Ctrl @ 1000 nM
T34 construct: purchased DiscoveRx KINOMEscan

PDPK1 = molecular target: T35, PDPK1 (Homo sapiens, UniProt O15530); details: read-out: %Ctrl @ 1000 nM
T35 construct: purchased DiscoveRx KINOMEscan

CLK3 = molecular target: T36, CLK3 (Homo sapiens, UniProt P49761); details: read-out: %Ctrl @ 1000 nM
T36 construct: purchased DiscoveRx KINOMEscan

PHKG1 = molecular target: T37, PHKG1 (Homo sapiens, UniProt Q16816); details: read-out: %Ctrl @ 1000 nM
T37 construct: purchased DiscoveRx KINOMEscan

BTK = molecular target: T38, BTK (Homo sapiens, UniProt Q06187); details: read-out: %Ctrl @ 1000 nM
T38 construct: purchased DiscoveRx KINOMEscan

[1] = molecular target: T39, ABL1(F317L)-phosphorylated (Homo sapiens, UniProt P00519, F317L); details: read-out: %Ctrl @ 1000 nM
T39 construct: purchased DiscoveRx (KINOMEscan service)

EGFR(G719S) = molecular target: T40, EGFR(G719S) (Homo sapiens, UniProt P00533, G719S); details: read-out: %Ctrl @ 1000 nM
T40 construct: purchased DiscoveRx KINOMEscan

CSNK1G3 = molecular target: T41, CSNK1G3 (Homo sapiens, UniProt Q9Y6M4); details: read-out: %Ctrl @ 1000 nM
T41 construct: purchased DiscoveRx KINOMEscan

[2] = molecular target: T42, EGFR(L747-E749del, A750P) (Homo sapiens, UniProt P00533, A750P/DEL747-749); details: read-out: %Ctrl @ 1000 nM
T42 construct: purchased DiscoveRx KINOMEscan

FLT3(ITD) = test system: FLT3(ITD)
MARK1 = molecular target: T43, MARK1 (Homo sapiens, UniProt Q9P0L2); details: read-out: %Ctrl @ 1000 nM
T43 construct: purchased DiscoveRx KINOMEscan

T1 sequence (P51813 whole entry): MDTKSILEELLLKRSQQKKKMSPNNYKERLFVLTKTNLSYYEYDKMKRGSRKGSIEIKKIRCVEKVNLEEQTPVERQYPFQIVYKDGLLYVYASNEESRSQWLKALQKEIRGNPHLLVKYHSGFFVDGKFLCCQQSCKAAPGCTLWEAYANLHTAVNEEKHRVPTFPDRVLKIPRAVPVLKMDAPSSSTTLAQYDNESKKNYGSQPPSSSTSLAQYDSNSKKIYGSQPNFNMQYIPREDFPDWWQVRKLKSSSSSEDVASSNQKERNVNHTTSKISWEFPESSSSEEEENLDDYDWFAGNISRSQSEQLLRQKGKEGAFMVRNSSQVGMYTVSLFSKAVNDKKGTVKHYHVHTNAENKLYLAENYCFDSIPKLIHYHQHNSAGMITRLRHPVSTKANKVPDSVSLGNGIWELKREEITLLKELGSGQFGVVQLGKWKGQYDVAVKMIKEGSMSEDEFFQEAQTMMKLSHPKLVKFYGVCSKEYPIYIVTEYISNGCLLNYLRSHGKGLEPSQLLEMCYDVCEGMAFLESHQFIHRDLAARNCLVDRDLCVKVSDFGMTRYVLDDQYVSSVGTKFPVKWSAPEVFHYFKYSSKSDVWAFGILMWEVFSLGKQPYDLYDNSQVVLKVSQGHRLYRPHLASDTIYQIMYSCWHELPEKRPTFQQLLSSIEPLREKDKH
T14 sequence (P12931 whole entry): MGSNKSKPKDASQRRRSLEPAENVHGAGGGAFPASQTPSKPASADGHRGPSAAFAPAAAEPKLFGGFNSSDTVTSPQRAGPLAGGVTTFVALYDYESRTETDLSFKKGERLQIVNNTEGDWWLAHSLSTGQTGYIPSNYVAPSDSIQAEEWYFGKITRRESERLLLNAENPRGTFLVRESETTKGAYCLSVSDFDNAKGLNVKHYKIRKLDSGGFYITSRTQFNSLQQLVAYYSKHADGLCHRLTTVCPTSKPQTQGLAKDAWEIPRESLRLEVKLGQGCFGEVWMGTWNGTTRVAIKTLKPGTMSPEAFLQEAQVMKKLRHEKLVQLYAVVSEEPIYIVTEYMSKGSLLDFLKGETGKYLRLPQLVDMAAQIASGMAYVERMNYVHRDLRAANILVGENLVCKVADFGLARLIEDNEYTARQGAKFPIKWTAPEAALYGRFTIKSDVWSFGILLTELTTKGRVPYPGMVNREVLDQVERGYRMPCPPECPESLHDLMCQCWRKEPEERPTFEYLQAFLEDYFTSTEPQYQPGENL
T4 sequence (Q9UF33 23-1036): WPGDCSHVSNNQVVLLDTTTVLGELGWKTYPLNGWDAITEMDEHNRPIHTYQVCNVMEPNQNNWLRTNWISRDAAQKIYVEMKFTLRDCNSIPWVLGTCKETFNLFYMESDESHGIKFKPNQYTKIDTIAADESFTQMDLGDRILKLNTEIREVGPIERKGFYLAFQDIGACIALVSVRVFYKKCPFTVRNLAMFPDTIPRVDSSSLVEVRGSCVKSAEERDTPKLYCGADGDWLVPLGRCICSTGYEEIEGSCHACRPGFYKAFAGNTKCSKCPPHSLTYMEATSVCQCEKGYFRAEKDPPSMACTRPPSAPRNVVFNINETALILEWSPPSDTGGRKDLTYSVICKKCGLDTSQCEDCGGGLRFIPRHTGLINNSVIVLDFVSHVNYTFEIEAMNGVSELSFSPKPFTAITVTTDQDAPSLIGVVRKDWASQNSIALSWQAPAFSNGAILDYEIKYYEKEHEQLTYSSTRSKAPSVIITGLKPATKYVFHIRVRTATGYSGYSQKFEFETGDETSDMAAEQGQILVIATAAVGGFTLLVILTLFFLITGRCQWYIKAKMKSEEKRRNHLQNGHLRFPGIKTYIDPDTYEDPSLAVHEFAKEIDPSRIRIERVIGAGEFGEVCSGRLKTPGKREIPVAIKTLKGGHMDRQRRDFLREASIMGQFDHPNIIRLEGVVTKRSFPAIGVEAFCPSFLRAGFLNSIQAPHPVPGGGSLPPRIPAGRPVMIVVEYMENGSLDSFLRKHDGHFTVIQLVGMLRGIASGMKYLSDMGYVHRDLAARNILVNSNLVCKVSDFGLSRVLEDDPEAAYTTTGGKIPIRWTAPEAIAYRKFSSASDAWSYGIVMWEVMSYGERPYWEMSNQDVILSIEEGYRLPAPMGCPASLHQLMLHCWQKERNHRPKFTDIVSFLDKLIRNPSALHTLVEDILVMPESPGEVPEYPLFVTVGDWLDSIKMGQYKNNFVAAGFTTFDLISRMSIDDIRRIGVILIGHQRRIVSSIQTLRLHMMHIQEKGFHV
T30 sequence (Q9UHD2 whole entry): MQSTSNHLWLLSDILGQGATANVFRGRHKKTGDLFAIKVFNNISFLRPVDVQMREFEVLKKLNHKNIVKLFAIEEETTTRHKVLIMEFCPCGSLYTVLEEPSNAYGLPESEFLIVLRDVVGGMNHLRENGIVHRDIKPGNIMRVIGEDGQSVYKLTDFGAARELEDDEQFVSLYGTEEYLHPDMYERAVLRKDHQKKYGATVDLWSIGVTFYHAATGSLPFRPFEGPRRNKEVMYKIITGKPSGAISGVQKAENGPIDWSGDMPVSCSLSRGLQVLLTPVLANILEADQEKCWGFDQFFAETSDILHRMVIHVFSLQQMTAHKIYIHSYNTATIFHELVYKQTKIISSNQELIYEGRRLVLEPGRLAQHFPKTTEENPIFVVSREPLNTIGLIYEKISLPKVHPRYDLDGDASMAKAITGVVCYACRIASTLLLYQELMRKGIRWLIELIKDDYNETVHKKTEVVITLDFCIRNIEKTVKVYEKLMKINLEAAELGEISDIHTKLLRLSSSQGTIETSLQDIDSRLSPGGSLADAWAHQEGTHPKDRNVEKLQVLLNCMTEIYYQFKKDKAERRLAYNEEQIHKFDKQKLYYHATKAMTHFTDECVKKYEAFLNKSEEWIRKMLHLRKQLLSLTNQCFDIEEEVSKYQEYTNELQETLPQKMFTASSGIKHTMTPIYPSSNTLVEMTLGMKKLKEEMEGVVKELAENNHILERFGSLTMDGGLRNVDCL
T8 sequence (Q9UIK4 whole entry): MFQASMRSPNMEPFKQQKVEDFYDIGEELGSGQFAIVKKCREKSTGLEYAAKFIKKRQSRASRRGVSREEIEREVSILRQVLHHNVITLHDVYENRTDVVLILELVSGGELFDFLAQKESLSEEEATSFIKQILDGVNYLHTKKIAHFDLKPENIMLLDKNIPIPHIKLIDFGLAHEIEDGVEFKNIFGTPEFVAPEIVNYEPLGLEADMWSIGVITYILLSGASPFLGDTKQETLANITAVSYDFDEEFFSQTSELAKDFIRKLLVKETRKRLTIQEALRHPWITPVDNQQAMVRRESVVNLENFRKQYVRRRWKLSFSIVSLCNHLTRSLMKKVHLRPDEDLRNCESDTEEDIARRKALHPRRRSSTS
T7 sequence (Q9HC98 whole entry): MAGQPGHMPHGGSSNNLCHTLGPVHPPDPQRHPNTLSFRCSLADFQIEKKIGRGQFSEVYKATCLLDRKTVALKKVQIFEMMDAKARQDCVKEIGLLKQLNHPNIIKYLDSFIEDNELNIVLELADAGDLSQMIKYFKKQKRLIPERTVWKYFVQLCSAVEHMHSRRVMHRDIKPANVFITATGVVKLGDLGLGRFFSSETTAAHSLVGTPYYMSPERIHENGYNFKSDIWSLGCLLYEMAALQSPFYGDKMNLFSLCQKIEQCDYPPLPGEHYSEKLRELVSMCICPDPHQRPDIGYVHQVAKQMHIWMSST
T24 sequence (Q16832 22-855): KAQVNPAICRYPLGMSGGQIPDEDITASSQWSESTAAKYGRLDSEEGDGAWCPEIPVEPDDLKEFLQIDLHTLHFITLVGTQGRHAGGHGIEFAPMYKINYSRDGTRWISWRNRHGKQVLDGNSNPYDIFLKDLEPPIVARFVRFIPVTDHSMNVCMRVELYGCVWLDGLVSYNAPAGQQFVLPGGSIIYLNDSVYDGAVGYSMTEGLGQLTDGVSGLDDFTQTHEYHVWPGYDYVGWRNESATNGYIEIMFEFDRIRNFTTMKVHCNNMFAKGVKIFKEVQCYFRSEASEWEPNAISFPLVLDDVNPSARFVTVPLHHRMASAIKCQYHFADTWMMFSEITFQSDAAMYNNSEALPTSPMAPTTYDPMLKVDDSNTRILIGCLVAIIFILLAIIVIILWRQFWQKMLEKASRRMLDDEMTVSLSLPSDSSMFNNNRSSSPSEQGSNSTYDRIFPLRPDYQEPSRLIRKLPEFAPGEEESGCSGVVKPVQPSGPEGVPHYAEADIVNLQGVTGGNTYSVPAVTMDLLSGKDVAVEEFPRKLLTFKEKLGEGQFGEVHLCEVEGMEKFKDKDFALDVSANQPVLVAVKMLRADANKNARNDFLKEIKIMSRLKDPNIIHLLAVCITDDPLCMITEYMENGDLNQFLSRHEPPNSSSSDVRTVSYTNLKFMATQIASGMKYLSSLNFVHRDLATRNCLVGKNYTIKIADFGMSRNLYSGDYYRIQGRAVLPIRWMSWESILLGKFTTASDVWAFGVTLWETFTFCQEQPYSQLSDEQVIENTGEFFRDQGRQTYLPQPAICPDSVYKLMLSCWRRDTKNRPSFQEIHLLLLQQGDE
T19 sequence (Q9BUB5 whole entry): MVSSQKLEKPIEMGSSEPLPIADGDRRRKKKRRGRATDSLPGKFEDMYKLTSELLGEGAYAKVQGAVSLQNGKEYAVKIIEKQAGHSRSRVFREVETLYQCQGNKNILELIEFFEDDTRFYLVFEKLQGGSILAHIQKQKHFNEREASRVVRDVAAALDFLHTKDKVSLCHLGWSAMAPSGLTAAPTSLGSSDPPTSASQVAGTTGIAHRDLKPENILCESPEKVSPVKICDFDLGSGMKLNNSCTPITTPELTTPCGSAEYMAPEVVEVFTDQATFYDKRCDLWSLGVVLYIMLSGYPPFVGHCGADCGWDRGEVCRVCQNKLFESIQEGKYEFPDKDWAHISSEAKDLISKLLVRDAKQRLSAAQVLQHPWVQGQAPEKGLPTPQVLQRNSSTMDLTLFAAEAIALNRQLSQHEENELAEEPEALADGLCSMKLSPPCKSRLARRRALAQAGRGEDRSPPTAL

For `CCN(C(=O)CO)[C@H]1CN(/C(=N\C#N)Nc2cccc(OC(F)F)c2)N=C1c1ccc(Cl)c(Cl)c1` [(S)-4], the remaining binding at 1 µM (BMX) was 89%, the remaining binding at 1 µM (MAP4K2) was 96% and the remaining binding at 1 µM (CAMK2G) was 89%. For the same compound, the remaining binding at 1 µM (EPHA6) was 99%, the remaining binding at 1 µM (TNIK) was 100% and the remaining binding at 1 µM (DDR1) was 96%. It also gave a remaining binding at 1 µM (NEK6) of 91%, a remaining binding at 1 µM (DAPK2) of 100% and a remaining binding at 1 µM (PKAC-alpha) of 74%. For the same compound, the remaining binding at 1 µM (ERK2) was 98%, the remaining binding at 1 µM (CSNK1E) was 86% and the remaining binding at 1 µM (CDKL1) was 76%. It also gave a remaining binding at 1 µM (HCK) of 68%, a remaining binding at 1 µM (SRC) of 79% and a remaining binding at 1 µM (TLK1) of 100%. For the same compound, the remaining binding at 1 µM (MYO3B) was 96%, the remaining binding at 1 µM (ACVR2B) was 100% and the remaining binding at 1 µM (NEK5) was 85%. The remaining binding at 1 µM (MKNK1) was 100%, the remaining binding at 1 µM (PIM1) was 82% and the remaining binding at 1 µM (FLT3(D835Y)) was 78%. For the same compound, the remaining binding at 1 µM (PIK3CA(H1047L)) was 92%, the remaining binding at 1 µM (CTK) was 100% and the remaining binding at 1 µM (DDR2) was 100%. It also gave a remaining binding at 1 µM (PKN1) of 61%, a remaining binding at 1 µM (PRKCI) of 63% and a remaining binding at 1 µM (ASK1) of 88%. For the same compound, the remaining binding at 1 µM (STK33) was 83%, the remaining binding at 1 µM (CDKL5) was 100% and the remaining binding at 1 µM (TBK1) was 82%. The remaining binding at 1 µM (WNK3) was 93%, the remaining binding at 1 µM (FLT3(D835H)) was 93% and the remaining binding at 1 µM (PAK7) was 100%. The remaining binding at 1 µM (TSSK1B) was 79%, the remaining binding at 1 µM (PDPK1) was 59% and the remaining binding at 1 µM (CLK3) was 94%. It also gave a remaining binding at 1 µM (PHKG1) of 97%, a remaining binding at 1 µM (BTK) of 79% and a remaining binding at 1 µM [1] of 93%. It also gave a remaining binding at 1 µM (EGFR(G719S)) of 78%, a remaining binding at 1 µM (CSNK1G3) of 79% and a remaining binding at 1 µM [2] of 87%. The “%Ctrl @ 1000 nM” value (FLT3(ITD)) was 91% and the remaining binding at 1 µM (MARK1) was 71%.

Reference: PMC4917279 (Journal of Medicinal Chemistry, 2016)
